The results in this text go back to ChEMBL document CHEMBL6103575, “Design, synthesis and evaluation of (E)-1-(4-(2-(1H-pyrazol-5-yl)vinyl)phenyl) derivatives as next generation selective RET inhibitors overcoming RET solvent front mutations (G810C/R)” (Eur J Med Chem, 2025).

The subject of test [1] is BaF3. Description: Antiproliferative activity against mouse BaF3 cells harbouring CCDC6-RET G810R mutant assessed as inhibition of cell proliferation incubated for 72 hrs by CCK-8 assay. It counts as functional, cell-based. The settings on record: BaF3, 72 h.
For test [2], the system named is BaF3. Description: Antiproliferative activity against mouse BaF3 cells harbouring CCDC6-RET V804M mutant assessed as inhibition of cell proliferation incubated for 72 hrs by CCK-8 assay. It counts as functional, cell-based. The settings on record: BaF3, 72 h.
Test [3] concerns BaF3. Description: Antiproliferative activity against mouse BaF3 cells harbouring CCDC6-RET assessed as inhibition of cell proliferation incubated for 72 hrs by CCK-8 assay. The format is functional, cell-based. The settings on record: BaF3, 72 h.
Test [4] deals with BaF3. Description: Antiproliferative activity against mouse BaF3 cells harbouring CCDC6-RET G810C mutant assessed as inhibition of cell proliferation incubated for 72 hrs by CCK-8 assay. The format is functional, cell-based. The settings on record: BaF3, 72 h.
Test [5] deals with BaF3. Description: Antiproliferative activity against mouse BaF3 cells harbouring CCDC6-RET G810C mutant. The format is functional, cell-based.
The subject of test [6] is BaF3. Description: Antiproliferative activity against mouse BaF3 cells harbouring CCDC6-RET.
Test [7] has as its system BaF3. Description: Antiproliferative activity against mouse BaF3 cells harbouring CCDC6-RET V804M mutant. It counts as functional, cell-based.
In test [8] the test system is BaF3. Description: Antiproliferative activity against mouse BaF3 cells harbouring CCDC6-RET G810R mutant. It counts as functional, cell-based.
The test system of test [9] is BaF3. Description: Antiproliferative activity against mouse BaF3 cells harbouring KIF5B-RET G810C mutant assessed as inhibition of cell proliferation. The format is functional, cell-based.
Test [10] relates to BaF3. Description: Antiproliferative activity against mouse BaF3 cells harbouring KIF5B-RET G810R mutant assessed as inhibition of cell proliferation. It counts as functional, cell-based.
Test [11] has as its system BaF3. Description: Antiproliferative activity against mouse BaF3 cells harbouring KIF5B-RET assessed as inhibition of cell proliferation. The format is functional, cell-based.
In test [12] the test system is BaF3. Description: Antiproliferative activity against mouse BaF3 cells harbouring CCDC6-RET V804M mutant assessed as inhibition of cell proliferation. It counts as functional, cell-based.
Test [13] deals with Proto-oncogene tyrosine-protein kinase receptor Ret (Homo sapiens, UniProt P07949, G810R). Description: Inhibition of RET G810R mutant (unknown origin).
Proto-oncogene tyrosine-protein kinase receptor Ret (Homo sapiens, UniProt P07949, G810R), sequence (P07949 29-1114 G810R limits assumed): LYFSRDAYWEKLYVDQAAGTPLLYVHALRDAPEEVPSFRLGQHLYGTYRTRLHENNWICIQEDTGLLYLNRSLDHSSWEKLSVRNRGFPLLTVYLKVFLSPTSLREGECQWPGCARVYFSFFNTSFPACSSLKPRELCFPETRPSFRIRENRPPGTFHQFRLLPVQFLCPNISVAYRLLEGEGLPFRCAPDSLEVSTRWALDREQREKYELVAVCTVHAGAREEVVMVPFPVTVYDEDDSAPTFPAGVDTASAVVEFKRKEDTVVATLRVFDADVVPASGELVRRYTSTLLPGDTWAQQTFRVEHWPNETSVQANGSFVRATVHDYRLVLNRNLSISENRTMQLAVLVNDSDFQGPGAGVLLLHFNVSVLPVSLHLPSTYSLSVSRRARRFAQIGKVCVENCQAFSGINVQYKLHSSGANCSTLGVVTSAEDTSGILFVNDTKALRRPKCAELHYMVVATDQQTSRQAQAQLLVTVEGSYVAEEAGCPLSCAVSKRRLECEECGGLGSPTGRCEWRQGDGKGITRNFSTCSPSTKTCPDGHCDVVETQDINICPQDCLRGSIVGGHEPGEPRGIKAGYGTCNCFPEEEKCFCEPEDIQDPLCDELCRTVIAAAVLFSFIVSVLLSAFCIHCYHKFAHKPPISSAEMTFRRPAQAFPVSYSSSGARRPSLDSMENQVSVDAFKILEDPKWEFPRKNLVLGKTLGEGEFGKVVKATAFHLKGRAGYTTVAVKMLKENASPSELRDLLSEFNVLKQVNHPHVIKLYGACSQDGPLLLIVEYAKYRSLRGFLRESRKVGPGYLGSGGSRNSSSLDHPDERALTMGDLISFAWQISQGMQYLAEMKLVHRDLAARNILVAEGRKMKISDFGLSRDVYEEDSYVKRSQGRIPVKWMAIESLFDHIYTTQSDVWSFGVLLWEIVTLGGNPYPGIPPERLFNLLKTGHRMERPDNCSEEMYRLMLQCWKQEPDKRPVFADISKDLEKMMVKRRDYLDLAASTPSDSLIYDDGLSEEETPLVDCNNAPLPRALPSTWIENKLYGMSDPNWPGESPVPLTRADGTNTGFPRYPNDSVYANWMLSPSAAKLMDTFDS
Test [14] addresses Proto-oncogene tyrosine-protein kinase receptor Ret (Homo sapiens, UniProt P07949, V804M). Description: Inhibition of RET V804M mutant (unknown origin).
In test [15] the target is Kinesin-1 heavy chain/ Tyrosine-protein kinase receptor RET (Homo sapiens, UniProt P07949). Description: Inhibition of wild type KIF5B-RET (unknown origin). The format is protein assay.
Kinesin-1 heavy chain/ Tyrosine-protein kinase receptor RET, sequence (P07949 whole entry): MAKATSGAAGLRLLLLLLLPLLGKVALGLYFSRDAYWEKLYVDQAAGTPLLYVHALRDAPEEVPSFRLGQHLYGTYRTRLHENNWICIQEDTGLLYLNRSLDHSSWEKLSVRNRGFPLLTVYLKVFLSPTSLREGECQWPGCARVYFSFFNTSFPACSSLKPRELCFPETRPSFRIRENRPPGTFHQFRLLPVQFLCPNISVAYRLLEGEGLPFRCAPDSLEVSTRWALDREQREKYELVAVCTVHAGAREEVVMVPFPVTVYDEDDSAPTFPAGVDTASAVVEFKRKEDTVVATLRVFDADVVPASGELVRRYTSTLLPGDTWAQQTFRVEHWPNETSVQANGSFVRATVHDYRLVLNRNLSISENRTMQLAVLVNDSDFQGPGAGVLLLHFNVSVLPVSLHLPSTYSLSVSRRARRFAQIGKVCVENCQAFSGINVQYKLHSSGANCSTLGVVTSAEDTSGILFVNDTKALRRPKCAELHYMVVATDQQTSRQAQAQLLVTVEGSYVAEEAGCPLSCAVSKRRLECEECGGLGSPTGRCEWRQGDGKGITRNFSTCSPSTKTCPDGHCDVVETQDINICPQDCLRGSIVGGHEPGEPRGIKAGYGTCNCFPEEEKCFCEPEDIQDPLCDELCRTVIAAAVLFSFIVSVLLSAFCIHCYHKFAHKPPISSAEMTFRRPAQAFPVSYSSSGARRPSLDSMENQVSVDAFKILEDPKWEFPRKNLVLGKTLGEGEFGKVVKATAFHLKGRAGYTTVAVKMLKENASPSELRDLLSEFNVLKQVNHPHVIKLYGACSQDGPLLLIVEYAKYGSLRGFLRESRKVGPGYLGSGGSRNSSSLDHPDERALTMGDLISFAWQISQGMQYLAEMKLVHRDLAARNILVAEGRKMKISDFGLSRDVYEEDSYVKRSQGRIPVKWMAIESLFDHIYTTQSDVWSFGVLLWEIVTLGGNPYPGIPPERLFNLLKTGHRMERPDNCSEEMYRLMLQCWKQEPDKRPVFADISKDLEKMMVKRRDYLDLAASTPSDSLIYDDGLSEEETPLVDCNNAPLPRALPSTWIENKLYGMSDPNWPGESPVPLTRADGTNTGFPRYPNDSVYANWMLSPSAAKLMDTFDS
Kinesin-1 heavy chain/ Tyrosine-protein kinase receptor RET, sequence (P33176 whole entry, further chain): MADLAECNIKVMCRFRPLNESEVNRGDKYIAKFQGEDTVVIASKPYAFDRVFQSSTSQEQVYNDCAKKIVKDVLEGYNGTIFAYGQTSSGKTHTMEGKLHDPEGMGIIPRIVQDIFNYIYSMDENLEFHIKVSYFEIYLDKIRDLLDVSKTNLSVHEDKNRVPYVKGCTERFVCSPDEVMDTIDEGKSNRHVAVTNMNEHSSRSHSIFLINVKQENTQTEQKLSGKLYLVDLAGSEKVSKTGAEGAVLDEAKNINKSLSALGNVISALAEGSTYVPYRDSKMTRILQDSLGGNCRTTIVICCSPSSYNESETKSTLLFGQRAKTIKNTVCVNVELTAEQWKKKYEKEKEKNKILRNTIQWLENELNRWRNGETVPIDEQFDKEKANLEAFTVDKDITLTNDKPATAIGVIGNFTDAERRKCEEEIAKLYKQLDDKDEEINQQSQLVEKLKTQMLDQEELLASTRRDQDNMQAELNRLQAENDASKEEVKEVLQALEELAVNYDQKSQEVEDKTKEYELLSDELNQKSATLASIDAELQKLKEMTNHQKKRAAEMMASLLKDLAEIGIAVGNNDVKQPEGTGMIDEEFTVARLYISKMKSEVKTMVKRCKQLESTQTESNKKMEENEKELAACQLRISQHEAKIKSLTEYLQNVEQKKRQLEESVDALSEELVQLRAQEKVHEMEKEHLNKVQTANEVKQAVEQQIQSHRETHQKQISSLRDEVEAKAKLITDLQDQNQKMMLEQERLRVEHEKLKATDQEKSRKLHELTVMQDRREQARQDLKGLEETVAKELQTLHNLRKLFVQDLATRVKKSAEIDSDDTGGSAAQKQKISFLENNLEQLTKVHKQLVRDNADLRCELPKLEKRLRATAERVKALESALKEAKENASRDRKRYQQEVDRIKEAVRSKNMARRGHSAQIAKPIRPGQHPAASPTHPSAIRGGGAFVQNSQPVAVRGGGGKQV

Proto-oncogene tyrosine-protein kinase receptor Ret (Homo sapiens, UniProt P07949, V804M), sequence (P07949 29-1114 V804M limits assumed): as the sequence (P07949 29-1114 G810R limits assumed) above, with V776M, R782G counted along it

Take `COc1ccc(-c2cn[nH]c2/C=C/c2ccc(NC(=O)Nc3cc(C(C)(C)C(F)(F)F)on3)cc2)cn1`: the IC50 in test [1] came to 301 nM; in test [2] it was 2020 nM; in [3], 98.5 nM; in test [4] it was 117 nM.

Regarding `COc1cncc(-c2cn[nH]c2/C=C/c2ccc(NC(=O)Nc3cc(C(C)(C)C(F)(F)F)on3)cc2)c1`, the IC50 in test [1] came out at 133 nM; in test [2], 554 nM; in [3], 46 nM; in test [4], 46 nM.

For the compound `COC(=O)c1cncc(-c2cn[nH]c2/C=C/c2ccc(NC(=O)Nc3cc(C(C)(C)C(F)(F)F)on3)cc2)c1`, the IC50 in test [1] is 428 nM; in test [2], 1020 nM; in [3] it was 89.4 nM; in test [4] it was 377 nM.

For the compound `CO[C@]1(C(=O)N[C@@H](C)c2ccc(-n3cc(F)cn3)nc2)CC[C@H](c2nc(C)cc(Nc3cc(C)[nH]n3)n2)CC1` [PRALSETINIB], the IC50 in test [5] worked out at 114 nM; in test [6], 5 nM; in test [7] it was 4.1 nM; in test [1] it was 320 nM; in [2] it was 4.9 nM; in test [3] it was 3.9 nM. In addition, the results for the IC50 in [4] and in test [8] were 104 nM and 358 nM, respectively.

With `COc1cncc(-c2cn[nH]c2/C=C/c2ccc(NC(=O)Nc3cc(C(C)(C)C(F)(F)F)on3)c(C)c2)c1`, the IC50 amounted to 29.4 nM in test [1], 803 nM in test [2], 13.1 nM in [3] and 26.4 nM in [4].

Turning to `COc1cncc(-c2c[nH]nc2/C=C\c2ccc(NC(=O)Nc3cc(C(C)(C)C(F)(F)F)on3)cc2)c1`, the IC50 amounted to 812 nM in [1], 1780 nM in test [2], 406 nM in [3] and 694 nM in [4].

For `COc1cncc(-c2cn(C)nc2/C=C/c2ccc(NC(=O)Nc3cc(C(C)(C)C(F)(F)F)on3)cc2)c1`, the IC50 in [1] came to 1130 nM; in test [2], 719 nM; in test [3], 126 nM; in [4], 421 nM.

Consider `C[C@H]1CNC(=O)c2cnn3cc4c(nc23)N(Cc2cc(F)cnc2O1)[C@@H]1CCC[C@@H]1O4` [ENBEZOTINIB], for which the IC50 in [9], in [10] and in test [11] was 1 nM each time.

Turning to `COc1cncc(-c2cn[nH]c2/C=C/c2ccc(NC(=O)Nc3cc(C(C)(C)C(F)(F)F)on3)cc2OC)c1`, the IC50 was determined as 443 nM in test [1], 1050 nM in [2], 133 nM in test [3] and 700 nM in test [4].

For the compound `COc1cncc(-c2cn[nH]c2/C=C/c2cccc(NC(=O)Nc3cc(C(C)(C)C(F)(F)F)on3)c2)c1`, the IC50 in test [1] is 2200 nM; in test [2] it was 1810 nM; in test [3], 1060 nM; in test [4], 777 nM.

For `COc1cncc(-c2cn[nH]c2/C=C/c2ccc(NC(=O)Nc3cc(C(C)(C)C(F)(F)F)on3)c(OC)c2)c1`, the IC50 in [1] was 352 nM; in test [2] it was 754 nM; in test [3], 210 nM; in [4], 404 nM.

For `COc1cncc(-c2cnn(C)c2/C=C/c2ccc(NC(=O)Nc3cc(C(C)(C)C(F)(F)F)on3)cc2)c1`, the IC50 in test [1] is 836 nM; in [2], 1520 nM; in test [3], 223 nM; in [4] it was 641 nM.

In the case of `COc1cc(-c2cn[nH]c2/C=C/c2ccc(NC(=O)Nc3cc(C(C)(C)C(F)(F)F)on3)cc2)ccn1`, the IC50 was 208 nM in test [1], 1220 nM in test [2], 85.4 nM in test [3] and 121 nM in test [4].

With `CC(C)(c1cc(NC(=O)Nc2ccc(/C=C/c3[nH]ncc3-c3cncc(F)c3)cc2)no1)C(F)(F)F`, the concentration for half-maximal inhibition (IC50) in test [1] is 143 nM; in test [2], 594 nM; in [3], 147 nM; in test [4], 42 nM.

As for `COc1ccc(-c2cn[nH]c2CCc2ccc(NC(=O)Nc3cc(C(C)(C)C(F)(F)F)on3)cc2)cn1`, the IC50 in test [1] amounted to 1030 nM; in [2], 3610 nM; in test [3], 790 nM; in test [4], 718 nM.

For the compound `COc1cncc(-c2cn[nH]c2/C=C/c2ccc(NC(=O)Nc3cc(C(C)(C)C(F)(F)F)on3)cc2F)c1`, the IC50 came out at 179 nM in [1], 536 nM in test [2], 127 nM in test [3] and 173 nM in test [4].

Consider `COc1ccc(CN2[C@@H]3C[C@H]2CN(c2ccc(-c4cc(OCC(C)(C)O)cn5ncc(C#N)c45)cn2)C3)cn1`, for which, in test [12], the IC50 came out at 26 nM.

`COc1ccc(-c2c[nH]nc2-c2ccc(NC(=O)Nc3cc(C(C)(C)C(F)(F)F)on3)cc2)cn1`: the IC50 in test [1] turned out to be 658 nM; in [2] it was 231 nM; in [3], 435 nM; in test [4], 363 nM.

As to `CN1CCN(Cc2ccc(NC(=O)c3cncc(C#Cc4cnc(N)c5ncccc45)c3)cc2C(F)(F)F)CC1`, the half-maximal inhibitory concentration (IC50) in test [13] is 28.8 nM; in test [14] it was 28.8 nM; in test [15], 3.89 nM.

For the compound `COc1cncc(-c2cn[nH]c2/C=C/c2ccc(NC(=O)Nc3cc(C(C)(C)C(F)(F)F)on3)cc2Cl)c1`, the IC50 came out at 246 nM in test [1], 421 nM in test [2], 108 nM in test [3] and 309 nM in [4].

For the compound `CC(C)(c1cc(NC(=O)Nc2ccc(/C=C/c3[nH]ncc3-c3cncc(C#N)c3)cc2)no1)C(F)(F)F`, the IC50 stood at 278 nM in [1], 844 nM in [2], 175 nM in [3] and 205 nM in test [4].

Take `CNC(=O)c1cncc(-c2cn[nH]c2/C=C/c2ccc(NC(=O)Nc3cc(C(C)(C)C(F)(F)F)on3)cc2)c1`: the IC50 in [1] was 1210 nM; in [2] it was 3070 nM; in [3], 222 nM; in [4], 737 nM.

Regarding `COc1cncc(-c2cn[nH]c2/C=C/c2ccc(NC(=O)Nc3cc(C(C)(C)C(F)(F)F)on3)cc2C)c1`, the IC50 turned out to be 471 nM in [1], 632 nM in [2], 271 nM in test [3] and 499 nM in test [4].

As to `COc1cncc(-c2cn[nH]c2/C=C/c2ccc(NC(=O)Nc3cc(C(C)(C)C(F)(F)F)on3)c(F)c2)c1`, the IC50 came out at 22 nM in [1], 564 nM in test [2], 12.3 nM in [3] and 45.5 nM in test [4].
